Test results published in PubChem BioAssay (NCI).
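Step 1: Grow cells in 96-well plates. Step 2: Expose to compound for 48 hours at 5 concentrations. Step 3: Interpolate endpoints linearly; if unreached, use highest concentration. GI50 = concentration required for 50% inhibition of growth. TGI: total growth inhibition.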

How the values were obtained:
Assay in all cases: inhibition of tumour cell growth, NCI panel, 48 h
[1] = test system: HS 578T breast
[2] = test system: HT29 colon
[3] = test system: BT-549 breast
[4] = test system: MCF7 breast
[5] = test system: NCI/ADR-RES ovarian
[6] = test system: HOP-62 NSCLC
[7] = test system: SW-620 colon
[8] = test system: RPMI-8226 leukemia
[9] = test system: SK-OV-3 ovarian
[10] = test system: SK-MEL-28 melanoma
[11] = test system: LOX IMVI melanoma
[12] = test system: SR leukemia
[13] = test system: CAKI-1 renal
[14] = test system: MOLT-4 leukemia
[15] = test system: HOP-92 NSCLC
[16] = test system: OVCAR-3 ovarian
[17] = test system: SNB-19 CNS
[18] = test system: 786-0 renal
[19] = test system: T-47D breast
[20] = test system: SF-268 CNS
[21] = test system: OVCAR-5 ovarian
[22] = test system: UACC-257 melanoma
[23] = test system: COLO 205 colon
[24] = test system: KM12 colon
[25] = test system: SK-MEL-2 melanoma
[26] = test system: TK-10 renal
[27] = test system: NCI-H226 lung
[28] = test system: RXF 393 renal
[29] = test system: SN12C renal
[30] = test system: OVCAR-8 ovarian
[31] = test system: HCT-116 colon
[32] = test system: UO-31 renal
[33] = test system: OVCAR-4 ovarian
[34] = test system: A549 NSCLC
[35] = test system: SF-295 CNS
[36] = test system: SK-MEL-5 melanoma
[37] = test system: IGROV1 ovarian
[38] = test system: UACC-62 melanoma
[39] = test system: SF-539 CNS
[40] = test system: DU-145 prostate
[41] = test system: MDA-MB-231 breast
[42] = test system: NCI-H522 lung
[43] = test system: HL-60(TB) leukemia
[44] = test system: U251 CNS
[45] = test system: PC-3 prostate
[46] = test system: M14 melanoma
[47] = test system: HCT-15 colon
[48] = test system: K-562 leukemia
[49] = test system: SNB-75 CNS
[50] = test system: HCC-2998 colon
[51] = test system: NCI-H460 lung
[52] = test system: NCI-H23 lung
[53] = test system: MDA-MB-435
[54] = test system: MALME-3M melanoma
[55] = test system: CCRF-CEM leukemia
[56] = test system: ACHN renal
[57] = test system: EKVX NSCLC

With C=C1C(=O)O[C@H]2[C@H]1CC/C(COC(=O)CCSSCCC(=O)OC/C1=C/CC[C@@]3(C)O[C@H]3[C@H]3OC(=O)C(=C)[C@@H]3CC1)=C\CC[C@@]1(C)O[C@@H]21 as the compound, how does the GI50 [1] read?
The GI50 was 1950 nM.

What about the TGI [1] of the same compound?
Its TGI is 7450 nM.

What about the GI50 [2] of the same compound?
Its GI50 is 819 nM.

And the TGI [2]?
The TGI was 2390 nM.

What about the GI50 [3] of the same compound?
Its GI50 is 1100 nM.

And the TGI [3]?
The TGI was 2330 nM.

And the GI50 [4]?
Its GI50 is 426 nM.

And the TGI [4]?
Its TGI is 2320 nM.

And the GI50 [5]?
The GI50 was 2860 nM.

And the TGI [5]?
Its TGI is 10200 nM.

And the GI50 [6]?
Its GI50 is 1980 nM.

What about the TGI [6] of the same compound?
The TGI was 4640 nM.

What about the GI50 [7] of the same compound?
Its GI50 is 458 nM.

What about the TGI [7] of the same compound?
Its TGI is 1900 nM.

And the GI50 [8]?
The GI50 was 1060 nM.

And the TGI [8]?
The TGI was 3900 nM.

What about the GI50 [9] of the same compound?
The GI50 was 6670 nM.

And the TGI [9]?
Its TGI is 19000 nM.

And the GI50 [10]?
The GI50 was 1490 nM.

What about the TGI [10] of the same compound?
Its TGI is 2950 nM.

And the GI50 [11]?
The GI50 was 1600 nM.

What about the TGI [11] of the same compound?
Its TGI is 3120 nM.

What about the GI50 [12] of the same compound?
The GI50 was 308 nM.

And the TGI [12]?
Its TGI is 2770 nM.

And the GI50 [13]?
Its GI50 is 1280 nM.

What about the TGI [13] of the same compound?
Its TGI is 2540 nM.

What about the GI50 [14] of the same compound?
Its GI50 is 437 nM.

What about the TGI [14] of the same compound?
Its TGI is 2610 nM.

What about the GI50 [15] of the same compound?
The GI50 was 1020 nM.

What about the TGI [15] of the same compound?
Its TGI is 2540 nM.

And the GI50 [16]?
Its GI50 is 650 nM.

And the TGI [16]?
Its TGI is 1950 nM.

What about the GI50 [17] of the same compound?
Its GI50 is 1490 nM.

What about the TGI [17] of the same compound?
The TGI was 3160 nM.

What about the GI50 [18] of the same compound?
The GI50 was 1280 nM.

And the TGI [18]?
Its TGI is 2600 nM.

What about the GI50 [19] of the same compound?
Its GI50 is 1200 nM.

And the TGI [19]?
Its TGI is 4010 nM.

What about the GI50 [20] of the same compound?
The GI50 was 1460 nM.

What about the TGI [20] of the same compound?
Its TGI is 3080 nM.

What about the GI50 [21] of the same compound?
The GI50 was 1590 nM.

And the TGI [21]?
Its TGI is 3160 nM.

What about the GI50 [22] of the same compound?
Its GI50 is 1600 nM.

What about the TGI [22] of the same compound?
The TGI was 3430 nM.

What about the GI50 [23] of the same compound?
Its GI50 is 1160 nM.

And the TGI [23]?
Its TGI is 2990 nM.

And the GI50 [24]?
The GI50 was 1830 nM.

What about the TGI [24] of the same compound?
Its TGI is 3690 nM.

What about the GI50 [25] of the same compound?
The GI50 was 1930 nM.

What about the TGI [25] of the same compound?
The TGI was 4160 nM.

What about the GI50 [26] of the same compound?
Its GI50 is 1620 nM.

And the TGI [26]?
The TGI was 3190 nM.

What about the GI50 [27] of the same compound?
The GI50 was 1600 nM.

What about the TGI [27] of the same compound?
The TGI was 3340 nM.

What about the GI50 [28] of the same compound?
The GI50 was 247 nM.

What about the TGI [28] of the same compound?
Its TGI is 980 nM.

And the GI50 [29]?
The GI50 was 1140 nM.

And the TGI [29]?
The TGI was 2580 nM.

What about the GI50 [30] of the same compound?
The GI50 was 1260 nM.

And the TGI [30]?
The TGI was 3020 nM.

And the GI50 [31]?
Its GI50 is 330 nM.

And the TGI [31]?
Its TGI is 1240 nM.

What about the GI50 [32] of the same compound?
Its GI50 is 1080 nM.

And the TGI [32]?
Its TGI is 2280 nM.

And the GI50 [33]?
Its GI50 is 1520 nM.

And the TGI [33]?
The TGI was 3120 nM.

What about the GI50 [34] of the same compound?
The GI50 was 1990 nM.

And the TGI [34]?
The TGI was 4270 nM.

What about the GI50 [35] of the same compound?
Its GI50 is 3500 nM.

And the TGI [35]?
Its TGI is 13900 nM.

What about the GI50 [36] of the same compound?
Its GI50 is 1440 nM.

And the TGI [36]?
The TGI was 2780 nM.

And the GI50 [37]?
The GI50 was 1190 nM.

And the TGI [37]?
The TGI was 2660 nM.

And the GI50 [38]?
Its GI50 is 1560 nM.

And the TGI [38]?
Its TGI is 3160 nM.

And the GI50 [39]?
The GI50 was 1500 nM.

And the TGI [39]?
Its TGI is 2910 nM.

And the GI50 [40]?
Its GI50 is 1300 nM.

And the TGI [40]?
Its TGI is 2570 nM.

And the GI50 [41]?
Its GI50 is 1230 nM.

What about the TGI [41] of the same compound?
The TGI was 2660 nM.

What about the GI50 [42] of the same compound?
Its GI50 is 688 nM.

What about the TGI [42] of the same compound?
Its TGI is 2270 nM.

What about the GI50 [43] of the same compound?
Its GI50 is 448 nM.

And the TGI [43]?
Its TGI is 2190 nM.

What about the GI50 [44] of the same compound?
Its GI50 is 1410 nM.

What about the TGI [44] of the same compound?
Its TGI is 2860 nM.

And the GI50 [45]?
The GI50 was 1330 nM.

And the TGI [45]?
Its TGI is 2900 nM.

What about the GI50 [46] of the same compound?
The GI50 was 1340 nM.

What about the TGI [46] of the same compound?
The TGI was 2880 nM.

And the GI50 [47]?
Its GI50 is 429 nM.

What about the TGI [47] of the same compound?
Its TGI is 1760 nM.

And the GI50 [48]?
Its GI50 is 465 nM.

What about the TGI [48] of the same compound?
Its TGI is 2850 nM.

What about the GI50 [49] of the same compound?
The GI50 was 1800 nM.

And the TGI [49]?
Its TGI is 3480 nM.

And the GI50 [50]?
The GI50 was 1980 nM.

What about the TGI [50] of the same compound?
The TGI was 3930 nM.

What about the GI50 [51] of the same compound?
Its GI50 is 1590 nM.

What about the TGI [51] of the same compound?
Its TGI is 3340 nM.

What about the GI50 [52] of the same compound?
Its GI50 is 1730 nM.

And the TGI [52]?
The TGI was 3720 nM.

And the GI50 [53]?
Its GI50 is 1400 nM.

What about the TGI [53] of the same compound?
Its TGI is 3070 nM.

And the GI50 [54]?
Its GI50 is 1080 nM.

And the TGI [54]?
Its TGI is 2540 nM.

What about the GI50 [55] of the same compound?
The GI50 was 225 nM.

What about the TGI [55] of the same compound?
Its TGI is 1190 nM.

What about the GI50 [56] of the same compound?
Its GI50 is 897 nM.

What about the TGI [56] of the same compound?
Its TGI is 2110 nM.

And the GI50 [57]?
The GI50 was 1610 nM.

And the TGI [57]?
The TGI was 3470 nM.
